According to patent publication US20190016689A1, “NOVEL FLUORINATED QUINAZOLINE DERIVATIVES AS EGFR INHIBITORS” (TRILLIUM THERAPEUTICS INC., priority 2016, published 2019):

Assays:
P-gp = assay: Evaluation of P-gp efflux: Caco-2 permeability; conditions: human, Caco-2, pH 7.4
Description: (§1) At this stage of growth, cell monolayers were fully polarized and differentiated.
(§2) The permeability assay buffer was Hanks Balanced Salt Solution containing 10 mM HEPES and 15 mM glucose at a pH of 7.4. The dosing buffer contained 5 μM metoprolol (positive control), 5 μM atenolol (negative control) and 100 μM lucifer yellow. The buffer in the receiver chamber also contained 1% bovine serum albumin (BSA). The dosing solution concentration was 5 μM in the assay buffer. Digoxin (20 μM) was used as Pgp substrate control.
(§3) The known Pgp inhibitor was co-dosed at 50 μM with compound at 5 μM.
(§4) Cell monolayers were dosed on the apical side (A-to-B) or basolateral side (B-to-A) and incubated at 37° C. in a shaker (65 rpm). Samples were taken from the donor and receiver chambers at 120 minutes. Each determination was performed in duplicate.
(§5) Narrow-window mass extraction LC/MS analysis was performed for all samples from this study using a Waters Xevo quadrupole time-of-flight (QTof) mass spectrometer, to determine relative peak areas of parent compound. The percent of transported drug was calculated based on these peak areas, relative to the initial, dosing concentration.

[1] = Evaluation of P-gp efflux: Caco-2 permeability; conditions: human, Caco-2, pH 7.4
Description: as §1, §2, §3, §4, §5

EGFR (T790M) = EGFR (T790M) (Homo sapiens, UniProt P00533, T790M, form not given); assay: Kinase HotSpot profiling (33P-ATP filter binding); assay type: biochemical
Chain of EGFR (T790M) (P00533 whole entry T790M, form open): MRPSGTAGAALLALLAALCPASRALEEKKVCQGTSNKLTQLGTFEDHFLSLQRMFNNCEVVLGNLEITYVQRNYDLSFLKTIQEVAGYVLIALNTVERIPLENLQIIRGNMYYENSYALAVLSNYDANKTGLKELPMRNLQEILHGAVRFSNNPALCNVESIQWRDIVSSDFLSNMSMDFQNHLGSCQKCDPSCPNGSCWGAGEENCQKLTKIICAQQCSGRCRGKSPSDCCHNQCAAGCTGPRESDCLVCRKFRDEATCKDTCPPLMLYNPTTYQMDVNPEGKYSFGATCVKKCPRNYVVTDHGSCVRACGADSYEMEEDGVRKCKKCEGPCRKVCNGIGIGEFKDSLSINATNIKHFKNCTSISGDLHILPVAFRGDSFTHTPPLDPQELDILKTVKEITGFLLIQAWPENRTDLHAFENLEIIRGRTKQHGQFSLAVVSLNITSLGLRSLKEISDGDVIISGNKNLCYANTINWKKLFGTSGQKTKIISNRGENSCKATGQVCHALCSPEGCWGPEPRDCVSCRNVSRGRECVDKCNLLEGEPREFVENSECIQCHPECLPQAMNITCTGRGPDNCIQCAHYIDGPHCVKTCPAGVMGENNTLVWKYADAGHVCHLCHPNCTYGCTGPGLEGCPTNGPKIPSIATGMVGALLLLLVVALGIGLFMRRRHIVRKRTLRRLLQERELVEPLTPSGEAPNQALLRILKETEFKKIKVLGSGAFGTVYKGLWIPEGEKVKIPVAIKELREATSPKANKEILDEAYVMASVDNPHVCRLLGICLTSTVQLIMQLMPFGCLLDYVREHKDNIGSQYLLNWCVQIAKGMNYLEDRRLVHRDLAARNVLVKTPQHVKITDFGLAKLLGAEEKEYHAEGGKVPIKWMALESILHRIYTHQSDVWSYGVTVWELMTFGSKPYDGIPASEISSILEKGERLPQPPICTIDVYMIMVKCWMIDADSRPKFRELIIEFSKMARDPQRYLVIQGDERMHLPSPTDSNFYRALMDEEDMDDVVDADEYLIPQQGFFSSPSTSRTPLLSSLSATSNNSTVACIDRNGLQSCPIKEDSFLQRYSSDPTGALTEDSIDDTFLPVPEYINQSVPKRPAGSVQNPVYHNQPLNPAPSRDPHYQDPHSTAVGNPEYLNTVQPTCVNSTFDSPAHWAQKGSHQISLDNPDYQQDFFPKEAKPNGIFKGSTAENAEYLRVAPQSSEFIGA
Description: Base Reaction buffer; 20 mM Hepes (pH 7.5), 10 mM MgCl2, 1 mM EGTA, 0.02% Brij35, 0.02 mg/ml BSA, 0.1 mM Na3VO4, 2 mM DTT, 1% DMSO • Required cofactors are added individually to each kinase reaction
1. The indicated substrate was prepared in fresh Base Reaction Buffer.
2. Any required cofactors were added to the substrate solution above.
3. Indicated kinase was added into the substrate solution and gently mixed.
4. Compounds in DMSO were added into the kinase reaction mixture by Acoustic technology (Echo550; nanoliter range) and incubated for 20 minutes at room temperature.
5. 33P-ATP (specific activity 10 μCi/μl) was added into the reaction mixture to initiate the reaction.
6. The kinase reaction was incubated for 2 hours at room temperature
7. Reactions were spotted onto P81 ion exchange paper.
8. Kinase activity was detected by filter-binding method.
IC50 (nM) concentrations are illustrated in Table 5. This assay confirms that compounds of the application are effective inhibitors of the target EGFR receptors.

| SMILES | efflux ratio at 120 min, 5 µM (P-gp) | Papp A→B at 120 min, 5 µM [1] [×10⁻⁶ cm/s] | Papp B→A at 120 min, 5 µM [1] [×10⁻⁶ cm/s] | IC50 (EGFR (T790M)) [nM] |
| --- | --- | --- | --- | --- |
| C[C@H]1O[C@@H](O[C@H]2[C@@H](O)C[C@H](O[C@H]3[C@@H](O)C[C@H](O[C@H]4CC[C@@]5(C)[C@H](CC[C@@H]6[C@@H]5C[C@@H](O)[C@]5(C)[C@@H](C7=CC(=O)OC7)CC[C@]65O)C4)O[C@@H]3C)O[C@@H]2C)C[C@H](O)[C@@H]1O [Digoxin] | 30.4 | 0.75 | 22.7 | – |
| CN(C)C/C=C/C(=O)Nc1cc2c(Nc3ccc(F)c(Cl)c3F)ncnc2cc1OCCOC(F)F [Example I-9, (E)-N-[4-(3-chloro-2,4-difluoro-anilino)-7-[2-(difluoromethoxy)-ethoxy]quinazolin-6-yl]-4-(dimethylamino)but-2-enamide] | – | – | – | 0.0597 |
| O=C(/C=C/CN1CCCCC1)Nc1cc2c(Nc3ccc(F)c(Cl)c3F)ncnc2cc1OCCOC(F)F [Example I-10, (E)-N-[4-(3-chloro-2,4-difluoro-anilino)-7-[2-(difluoromethoxy)ethoxy]quinazolin-6-yl]-4-(1-piperidyl)but-2-enamide] | – | – | – | 0.156 |
| COc1cc2ncnc(Nc3ccc(Cl)c(Cl)c3F)c2cc1NC(=O)/C=C/CN1CCC(OC(F)F)CC1 [Example I-17, (E)-N-[4-(3,4-dichloro-2-fluoro-anilino)-7-methoxy-quinazolin-6-yl]-4-[4-(difluoromethoxy)-1-piperidyl]but-2-enamide] | – | – | – | 817 |
| COc1cc2ncnc(Nc3ccc(F)c(Cl)c3)c2cc1NC(=O)/C=C/CN1CCC(OC(F)F)CC1 [Example I-18, (E)-N-[4-(3-chloro-4-fluoro-anilino)-7-methoxy-quinazolin-6-yl]-4-[4-(difluoromethoxy)-1-piperidyl]but-2-enamide] | – | – | – | 62.8 |
| O=C(/C=C/CN1CCC(OC(F)F)CC1)Nc1cc2c(Nc3ccc(F)c(Cl)c3)ncnc2cc1OCCOC(F)F [Example I-22, (E)-N-[4-(3-chloro-4-fluoro-anilino)-7-[2-(difluoromethoxy)ethoxy]quinazolin-6-yl]-4-[4-(difluoromethoxy)-1-piperidyl]but-2-enamide] | – | – | – | 13.1 |
| COc1cc2nc(N3CCN(C(=O)c4ccco4)CC3)nc(N)c2cc1OC [Prazosin] | 1.59 | 21.7 | 34.7 | – |
| CC(C)NCC(O)COc1cccc2ccccc12 (stereo not drawn) [Propranolol] | 0.75 | 21.1 | 15.8 | – |

More lines, now with the values ahead:

| efflux ratio at 120 min, 5 µM (P-gp) | Papp A→B at 120 min, 5 µM [1] [×10⁻⁶ cm/s] | Papp B→A at 120 min, 5 µM [1] [×10⁻⁶ cm/s] | IC50 (EGFR (T790M)) [nM] | SMILES |
| --- | --- | --- | --- | --- |
| – | – | – | 16.4 | CN(C)C/C=C/C(=O)Nc1cc2c(Nc3ccc(Cl)c(Cl)c3F)ncnc2cc1OCCOC(F)F [Example I-2, (E)-N-[4-(3,4-dichloro-2-fluoro-anilino)-7-[2-(difluoromethoxy)ethoxy]quinazolin-6-yl]-4-(dimethylamino)but-2-enamide] |
| – | – | – | 5.56 | O=C(/C=C/CN1CCOCC1)Nc1cc2c(Nc3ccc(Cl)c(Cl)c3F)ncnc2cc1OCCOC(F)F [Example I-3, (E)-N-[4-(3,4-dichloro-2-fluoro-anilino)-7-[2-(difluoromethoxy)ethoxy]quinazolin-6-yl]-4-morpholino-but-2-enamide] |
| – | – | – | 0.707 | CN(C)C/C=C/C(=O)Nc1cc2c(Nc3cccc(Cl)c3F)ncnc2cc1OCCOC(F)F [Example I-5, (E)-N-[4-(3-chloro-2-fluoro-anilino)-7-[2-(difluoromethoxy)ethoxy]quinazolin-6-yl]-4-(dimethylamino)but-2-enamide] |
| – | – | – | 10.5 | O=C(/C=C/CN1CCOCC1)Nc1cc2c(Nc3cccc(Cl)c3F)ncnc2cc1OCCOC(F)F [Example I-7, (E)-N-[4-(3-chloro-2-fluoro-anilino)-7-[2-(difluoromethoxy)-ethoxy]quinazolin-6-yl]-4-morpholino-but-2-enamide] |
| – | – | – | 79.5 | O=C(/C=C/CN1CCC(OC(F)F)CC1)Nc1cc2c(Nc3cccc(Cl)c3F)ncnc2cc1OCCOC(F)F [Example I-8, (E)-N-[4-(3-chloro-2-fluoro-anilino)-7-[2-(difluoromethoxy)-ethoxy]quinazolin-6-yl]-4-[4-(difluoromethoxy)-1-piperidyl]but-2-enamide] |
| – | – | – | 13.7 | O=C(/C=C/CN1CC(F)(F)C1)Nc1cc2c(Nc3ccc(F)c(Cl)c3F)ncnc2cc1OCCOC(F)F [Example I-16, (E)-N-[4-(3-chloro-2,4-difluoro-anilino)-7-[2-(difluoromethoxy)ethoxy]quinazolin-6-yl]-4-(3,3-difluoroazetidin-1-yl)but-2-enamide] |
| – | – | – | 0.679 | C#Cc1cccc(Nc2ncnc3cc(OCCOC(F)F)c(NC(=O)/C=C/CN(C)C)cc23)c1F [Example I-25, (E)-N-[7-[2-(difluoromethoxy)ethoxy]-4-(3-ethynyl-2-fluoro-anilino)quinazolin-6-yl]-4-(dimethylamino)but-2-enamide] |
